{"source": "paper PMC5712521", "about": "“Dendrogenin A drives LXR to trigger lethal autophagy in cancers” (Nature Communications, 2017)", "key": {"B16F10 cells": {"test_system": "B16F10 cells", "assay": "Immunoblot densitometry (LC3-II)", "format": "cell-based, mouse", "details": "2.5 µM DDA, 24 h", "procedure": "Immunoblotting was carried out as described previously. Proteins were separated on SDS-PAGE gels, electro-transferred onto polyvinylidene difluoride membranes and incubated overnight at 4 °C with the following antibodies: anti-Atg3, anti-Atg5 (D1G9), anti-Atg7 (D12B11), anti-Beclin (D40C5), anti-caspase-3 (Cell Signaling), anti-Bcl-2 (Millipore), anti-Bax (Millipore), anti-LC3 (Sigma-Aldrich), anti-LXRα (SantaCruz), anti-LXRβ (SantaCruz), anti-Nur77 (Active motif), anti-NOR1 (R&D systems), anti-PARP (Cell Signaling), anti-Vps34 (Cell Signaling), or anti-Actin (Millipore). For visualization, an ECL plus kit (Amersham Biosciences) was used, and chemiluminescence was measured by autoradiography (Supplementary Fig. 9). Specific bands were quantified with ImageQuant software."}, "AML patient samples": {"test_system": "AML patient samples", "assay": "Annexin-V/7AAD viability assay on AML patient samples (bulk and CD34+CD38−CD123+ progenitor/LSC)", "format": "cell-based, human", "details": "for IC50: Homo sapiens, 48 h, panel of 61 AML patient samples", "procedure": "The cytotoxic response to DDA of AML cells was determined by flow cytometry. Cells were exposed to DDA for 24 or 48 h then washed with cold phosphate-buffered saline (PBS) and resuspended in 200 µl of Annexin-V binding buffer. For the analysis of AML patient samples, cells were incubated with antibodies against the surface markers CD45-V450 (clone H130), CD34-PeCy7 (clone 8G12), CD38-APC (clone HB7) and CD123-PE (clone 9F5) (BD Pharmagen) before being resuspended in Annexin-V binding buffer. Annexin-V-fluorescein isothiocyanate (BD Pharmagen, clone 2331) and 7-aminoactinomycin D (7AAD) were then added, and the samples were incubated in the dark at room temperature for 15 min. The percentage of viable cells, Annexin-V-7AAD-negative cells, was scored using a flow cytometer.\nAML patient and normal bone marrow samples were obtained from patients in the Hematology Department of Toulouse (France), after obtaining consent in accordance with the Declaration of Helsinki[67], and according to institutional guidelines. Samples were stored at the INSERM-1037 HIMIP collection (no. DC-2008-307-CPTP1 HIMIP). For some experiments, fresh leukemic blasts recovered at diagnosis were immediately treated with DDA. In other cases, frozen cells were thawed in IMDM medium with 20% FBS. Patient characteristics are shown in supplementary data 1. Normal bone marrow cells were subjected to Ficoll-Paque density gradient separation to isolate mononuclear cells, followed by CD34+ cell separation using high-gradient magnetic-activated cell sorting, according to the manufacturer’s manual. The in vivo assays were performed with cryopreserved cells."}, "KG1 tumors": {"test_system": "KG1 tumors", "assay": "Subcutaneous KG1 tumor xenograft", "format": "in vivo, mice", "procedure": "Exponentially growing cells were harvested, washed twice in PBS then resuspended in PBS. SKMEL-28, shSKMEL-28 clones (5 × 10^6 cells) and B16F10 (3 × 10^5) cells were injected subcutaneously (s.c.) into the flank of nude mice. HL60, KG1 and shKG1-clones (5 × 10^6) were inoculated s.c. into the flanks of NOD/SCID mice. When tumors were palpable, animals (n = 10–20 mice per group, as indicated) were randomized to receive either DDA (20 mg/kg) intraperitoneally (i.p.) or 40 mg/kg by oral gavage (p.o), once a day, or vehicle solvent for the indicated time. Animals were examined daily and body weights were measured twice a week. In all experiments, tumor volume was determined by direct measurement with a caliper and was calculated using the formula (width^2 × length)/2. At the end of experiments, mice were sacrificed and tumors were excised and divided for intra-tumoral DDA quantification, immunoblotting, or immunohistochemistry analyses. […]\n(n=16- 20 mice/group) engrafted with KG1 cells or HL60 cells were treated with DDA (20 mg/kg/day, i.p.) or solvent vehicle (control). Tumor growth was monitored over time and was analyzed for significance using repeated measures ANOVA (***P<0.001). The mean tumor volumes ± SEM are shown. e Average tumor weight at the end of the experiments in d. *P<0.5, **P<0.01, ANOVA. f Mean tumor volumes measured at the end of the experiments for HL60 and KG1 graf ted into NOD/SCID or NMRI-Fo x1 -nude mice treated with DDA (40 mg/kg/day, p.o. or 20 mg/kg/day, i.p.) or solvent vehicle (control) (n=10- 20 mice per group). Values represent the means ± S.E.M. (**P<0.01, ***P<0.001, ANOVA). g Histochemical analysis of the expression of LC3 and P62 in HL60 tumor sections isolated from NOD/SCID mice treated or not with DDA (20 mg/kg/day, i.p.). h Quantification of LC3 punctate cells in shCTRL and shLXRβ KG1 tumors. i Quantification of DDA levels in tumors 4 h after the final administration of DDA. j Box plot of TCGA RNA-seq data from patients with melanoma showing that LXRβ is the predominant LXR isoform expressed. […]"}, "SKMEL-28 tumors": {"test_system": "SKMEL-28 tumors", "assay": "SKMEL-28 melanoma xenograft", "format": "in vivo, mice", "details": "human SKMEL-28; i.p. 20 mg/kg/day", "procedure": "Exponentially growing cells were harvested, washed twice in PBS then resuspended in PBS. SKMEL-28, shSKMEL-28 clones (5 × 10^6 cells) and B16F10 (3 × 10^5) cells were injected subcutaneously (s.c.) into the flank of nude mice. HL60, KG1 and shKG1-clones (5 × 10^6) were inoculated s.c. into the flanks of NOD/SCID mice. When tumors were palpable, animals (n = 10–20 mice per group, as indicated) were randomized to receive either DDA (20 mg/kg) intraperitoneally (i.p.) or 40 mg/kg by oral gavage (p.o), once a day, or vehicle solvent for the indicated time. Animals were examined daily and body weights were measured twice a week. In all experiments, tumor volume was determined by direct measurement with a caliper and was calculated using the formula (width^2 × length)/2. At the end of experiments, mice were sacrificed and tumors were excised and divided for intra-tumoral DDA quantification, immunoblotting, or immunohistochemistry analyses."}}, "note": "“And” between values parts separate entries of the source, which are not always exact repeats. Equal values may be shown once. Read-outs that look alike come from different tables or passages of the source."}
{"smiles": "CC(C)CCC[C@@H](C)[C@H]1CC[C@H]2[C@@H]3C[C@@H](NCCc4cnc[nH]4)[C@@]4(O)C[C@@H](O)CC[C@]4(C)[C@H]3CC[C@]12C", "note": "[DDA, Dendrogenin A]", "values": [{"measurement": "LC3-II protein, densitometry", "setting": "B16F10 cells; B16F10 siATG7", "value": 0.8}, {"measurement": "LC3-II protein, densitometry", "setting": "B16F10 cells; B16F10 siBECN1", "value": 1.3}, {"measurement": "LC3-II protein, densitometry", "setting": "B16F10 cells; B16F10 siNOR1 + siNur77", "value": 0.8}, {"measurement": "LC3-II protein, densitometry", "setting": "B16F10 cells; B16F10 siNOR1", "value": 0.8}, {"measurement": "LC3-II protein, densitometry", "setting": "B16F10 cells; B16F10 siNur77", "value": 1.1}, {"measurement": "LC3-II protein, densitometry", "setting": "B16F10 cells; B16F10 siSC", "value": "2.5 and 1.8 and 2.3"}, {"measurement": "LC3-II protein, densitometry", "setting": "B16F10 cells; B16F10 siVPS34", "value": 1.9}, {"measurement": "efficiency relative to cytarabine", "setting": "AML patient samples; AML bulk and progenitor/LSC (CD34+CD38−CD123+) subpopulation", "value": 100, "unit": "fold"}, {"measurement": "IC50", "setting": "AML patient samples; read-out: median IC50, cell viability", "value": 3.3, "unit": "µM"}, {"measurement": "IC50", "setting": "AML patient samples; read-out: range of IC50, cell viability", "value": "1.2 to 11.3", "unit": "µM"}, {"measurement": "Tumor volume at the end of the experiment", "setting": "KG1 tumors; NOD/SCID mice, DDA i.p. 20mg/kg/d (control 1249±137)", "value": "618±55", "unit": "mm3"}, {"measurement": "Tumor volume at the end of the experiment", "setting": "KG1 tumors; NOD/SCID mice, DDA p.o. 40mg/kg/d (control 1249±137)", "value": "400±68", "unit": "mm3"}, {"measurement": "Tumor volume at the end of the experiment", "setting": "KG1 tumors; mice, DDA i.p. 20mg/kg/d (control 1134±389)", "value": "443±62", "unit": "mm3"}, {"measurement": "tumor growth", "setting": "SKMEL-28 tumors", "value": "significantly reduced the growth"}]}
